PubChem BioAssay (NCI)
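Growth conditions: 96-well plates. Treatment: test compound, 48 hours, 5 concentrations. Analysis: linear interpolation between bracketing concentrations; unreached endpoints set to highest concentration. The concentration for full growth arrest is given as TGI.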

Assays:
Assay in all cases: DTP human tumour cell line panel, 48 h
HCT-116 colon = test system: HCT-116 colon
HCC-2998 colon = test system: HCC-2998 colon
SK-OV-3 ovarian = test system: SK-OV-3 ovarian
MALME-3M melanoma = test system: MALME-3M melanoma
ACHN renal = test system: ACHN renal
K-562 leukemia = test system: K-562 leukemia
SNB-19 CNS = test system: SNB-19 CNS
A549 NSCLC = test system: A549 NSCLC
EKVX NSCLC = test system: EKVX NSCLC
NCI-H522 lung = test system: NCI-H522 lung

## CCN(CC)CCC(=O)c1ccc(Oc2ccc(F)cc2)cc1
HCT-116 colon
  TGI: 30.3 µM
HCC-2998 colon
  TGI: 37.1 µM
SK-OV-3 ovarian
  TGI: > 100 µM
MALME-3M melanoma
  TGI: 34.9 µM
ACHN renal
  TGI: 32.4 µM
K-562 leukemia
  TGI: > 100 µM
SNB-19 CNS
  TGI: 33.6 µM
A549 NSCLC
  TGI: > 100 µM
EKVX NSCLC
  TGI: 39.4 µM

## C=CC(Br)(CBr)CCC(Br)C(C)C (stereo not drawn)
HCT-116 colon
  TGI: 14.3 µM
SK-OV-3 ovarian
  TGI: 30.2 µM
MALME-3M melanoma
  TGI: 28.1 µM
NCI-H522 lung
  TGI: 3.46 µM
ACHN renal
  TGI: 20.6 µM
K-562 leukemia
  TGI: 6.94 µM
SNB-19 CNS
  TGI: 23.4 µM
A549 NSCLC
  TGI: 28.5 µM
EKVX NSCLC
  TGI: 32.3 µM

## C#CCOC(=O)C(N)CCSC (stereo not drawn)
HCT-116 colon
  TGI: > 100 µM
SK-OV-3 ovarian
  TGI: > 100 µM
MALME-3M melanoma
  TGI: > 100 µM
NCI-H522 lung
  TGI: > 100 µM
ACHN renal
  TGI: > 100 µM
A549 NSCLC
  TGI: > 100 µM
EKVX NSCLC
  TGI: > 100 µM

## Cc1cc(C)c(N=Nc2c(O)c(S(=O)(=O)O)cc3cc(S(=O)(=O)O)ccc23)cc1C
HCT-116 colon
  TGI: > 100 µM
SK-OV-3 ovarian
  TGI: > 100 µM
MALME-3M melanoma
  TGI: > 100 µM
NCI-H522 lung
  TGI: > 100 µM
ACHN renal
  TGI: > 100 µM
K-562 leukemia
  TGI: > 100 µM
SNB-19 CNS
  TGI: > 100 µM
A549 NSCLC
  TGI: > 100 µM
EKVX NSCLC
  TGI: > 100 µM

## CC1=CC(=O)/C(=C/n2c(=S)[nH]c3ccccc32)C(=O)O1
HCT-116 colon
  TGI: > 100 µM
HCC-2998 colon
  TGI: > 100 µM
SK-OV-3 ovarian
  TGI: > 100 µM
NCI-H522 lung
  TGI: > 100 µM
ACHN renal
  TGI: > 100 µM
K-562 leukemia
  TGI: > 100 µM
SNB-19 CNS
  TGI: > 100 µM
A549 NSCLC
  TGI: > 100 µM
EKVX NSCLC
  TGI: > 100 µM

## CC1(C)C2CCC(N)(C2)C1O (stereo not drawn)
HCT-116 colon
  TGI: > 100 µM
HCC-2998 colon
  TGI: > 100 µM
SK-OV-3 ovarian
  TGI: > 100 µM
ACHN renal
  TGI: > 100 µM
K-562 leukemia
  TGI: > 100 µM
SNB-19 CNS
  TGI: > 100 µM
A549 NSCLC
  TGI: > 100 µM
EKVX NSCLC
  TGI: > 100 µM

## O=C(NN=C1CCCCC1)NN=C1CCCCC1
HCT-116 colon
  TGI: > 100 µM
SK-OV-3 ovarian
  TGI: > 100 µM
MALME-3M melanoma
  TGI: > 100 µM
K-562 leukemia
  TGI: > 100 µM
SNB-19 CNS
  TGI: > 100 µM

## Cc1sc2nc3n(c(=O)c2c1C)N=C(c1ccc([N+](=O)[O-])cc1)CS3
HCT-116 colon
  TGI: > 100 µM
HCC-2998 colon
  TGI: > 100 µM
SK-OV-3 ovarian
  TGI: > 100 µM
MALME-3M melanoma
  TGI: > 100 µM
NCI-H522 lung
  TGI: > 100 µM
ACHN renal
  TGI: > 100 µM
K-562 leukemia
  TGI: > 100 µM
A549 NSCLC
  TGI: > 100 µM
EKVX NSCLC
  TGI: > 100 µM

## COc1cc2c(c(OC)c1OC)-c1ccc(SC)cc1C(=O)CC2
HCC-2998 colon
  TGI: 39.6 µM
SK-OV-3 ovarian
  TGI: < 0.01 µM
MALME-3M melanoma
  TGI: > 21.9 µM
ACHN renal
  TGI: > 100 µM
SNB-19 CNS
  TGI: > 100 µM
A549 NSCLC
  TGI: > 100 µM
EKVX NSCLC
  TGI: > 100 µM

## O=[N+]([O-])c1cc(Cl)ccc1S(=O)(=O)N1CCCc2cc(Cl)ccc21
HCT-116 colon
  TGI: > 100 µM
HCC-2998 colon
  TGI: > 100 µM
SK-OV-3 ovarian
  TGI: > 100 µM
MALME-3M melanoma
  TGI: > 100 µM
ACHN renal
  TGI: > 100 µM
K-562 leukemia
  TGI: > 100 µM
SNB-19 CNS
  TGI: > 100 µM
A549 NSCLC
  TGI: > 100 µM
EKVX NSCLC
  TGI: > 100 µM

## C/C=C1\CC(C(=O)OCC)CCCCCCCCCCC1=O (stereo not drawn)
HCT-116 colon
  TGI: > 100 µM
SK-OV-3 ovarian
  TGI: > 100 µM
MALME-3M melanoma
  TGI: > 100 µM
NCI-H522 lung
  TGI: 81.5 µM
ACHN renal
  TGI: > 100 µM
SNB-19 CNS
  TGI: > 100 µM
A549 NSCLC
  TGI: > 100 µM
EKVX NSCLC
  TGI: > 100 µM

## OC1c2ccccc2C(O)C2OC12 (stereo not drawn)
HCT-116 colon
  TGI: > 100 µM
SK-OV-3 ovarian
  TGI: > 100 µM
MALME-3M melanoma
  TGI: > 100 µM
NCI-H522 lung
  TGI: > 100 µM
ACHN renal
  TGI: > 100 µM
K-562 leukemia
  TGI: > 100 µM
SNB-19 CNS
  TGI: > 100 µM
A549 NSCLC
  TGI: > 100 µM

## CN1B(c2ccccc2)N(C)C(=O)N(C)C1=O
HCT-116 colon
  TGI: > 100 µM
SK-OV-3 ovarian
  TGI: > 100 µM
MALME-3M melanoma
  TGI: > 100 µM
ACHN renal
  TGI: > 100 µM
K-562 leukemia
  TGI: > 100 µM
SNB-19 CNS
  TGI: > 100 µM
A549 NSCLC
  TGI: > 100 µM
EKVX NSCLC
  TGI: > 100 µM

## C=CCC(SC)C1=C(C)C(=O)c2ccccc21 (stereo not drawn)
HCC-2998 colon
  TGI: > 10 µM
SK-OV-3 ovarian
  TGI: > 10 µM
MALME-3M melanoma
  TGI: > 10 µM
ACHN renal
  TGI: > 10 µM
K-562 leukemia
  TGI: > 10 µM
SNB-19 CNS
  TGI: > 10 µM
A549 NSCLC
  TGI: > 10 µM
EKVX NSCLC
  TGI: > 10 µM

## C=CCC(CNC(=O)OCc1ccccc1)OC(=O)OCc1ccccc1 (stereo not drawn)
HCT-116 colon
  TGI: > 100 µM
HCC-2998 colon
  TGI: > 100 µM
SK-OV-3 ovarian
  TGI: > 100 µM
NCI-H522 lung
  TGI: > 100 µM
ACHN renal
  TGI: > 100 µM
K-562 leukemia
  TGI: > 100 µM
SNB-19 CNS
  TGI: > 100 µM
A549 NSCLC
  TGI: > 100 µM
EKVX NSCLC
  TGI: > 100 µM

## O=C1OC(=O)C2C1C(c1ccccc1[N+](=O)[O-])C=C(c1ccco1)N2c1ccncc1 (stereo not drawn)
HCT-116 colon
  TGI: 3.31 µM
SK-OV-3 ovarian
  TGI: 32 µM
MALME-3M melanoma
  TGI: 40.6 µM
NCI-H522 lung
  TGI: 6.17 µM
ACHN renal
  TGI: 3.24 µM
K-562 leukemia
  TGI: 5.33 µM
SNB-19 CNS
  TGI: 35.5 µM
A549 NSCLC
  TGI: 31.6 µM
EKVX NSCLC
  TGI: 39.7 µM

## CC1CC[C@@]2(OC1)OC1C[C@H]3[C@@H]4CCC5CC(O)CC[C@]5(C)[C@H]4C/C(=N\N(C)C)[C@]3(C)C1[C@@H]2C (stereo partly drawn)
HCT-116 colon
  TGI: 60.3 µM
HCC-2998 colon
  TGI: 45.6 µM
SK-OV-3 ovarian
  TGI: 47 µM
MALME-3M melanoma
  TGI: > 100 µM
ACHN renal
  TGI: > 100 µM
K-562 leukemia
  TGI: > 100 µM
SNB-19 CNS
  TGI: 88.4 µM
A549 NSCLC
  TGI: > 100 µM

## Cc1cccc(NC2=NCCO2)c1Cl
HCT-116 colon
  TGI: > 100 µM
HCC-2998 colon
  TGI: > 100 µM
SK-OV-3 ovarian
  TGI: > 100 µM
MALME-3M melanoma
  TGI: > 100 µM
ACHN renal
  TGI: > 100 µM
K-562 leukemia
  TGI: > 100 µM
SNB-19 CNS
  TGI: > 100 µM
A549 NSCLC
  TGI: > 100 µM
EKVX NSCLC
  TGI: > 100 µM
